Data as given in patent US20160039936A1, “FIBROBLAST GROWTH FACTOR RECEPTOR INHIBITION FOR THE TREATMENT OF DISEASE” (UNIVERSITY OF MIAMI, priority 2011, published 2016).

Tests used:
[1] = test system: isolated neonatal rat ventricular cardiac myocytes (NRVM); test: Surface area (hypertrophy) of isolated NRVM, immunocytochemistry and morphometry (Examples 1-2); format: cell-based; settings: for cell surface area: 48 h incubation with the FGF alone
Protocol: (§1) NRVM were isolated using a standard isolation system (Worthington Biochemical Corporation) (Toraason et al., Toxicology, 56(1):107-117, 1989). Hearts from 1-2 day old Sprague Dawley rats (Charles River) were harvested, minced in calcium- and magnesium-free Hank's Balanced Salt Solution (HBSS), and the tissue digested with 50 μg/ml trypsin at 4° C. for 20-24 hours. Soybean trypsin inhibitor in HBSS was added and the tissue was further digested with collagenase (in Leibovitz L-15 medium) under slow rotation (15 rpm) at 37° C. for 45 minutes. Cells were released by gently triturating the suspension 20 times with a standard 10 ml plastic serological pipette and filtering it twice through a cell strainer (70 μm, BD Falcon). Cells were incubated at room temperature for 20 minutes and spun at 100 g for 5 minutes. The cell pellet was resuspended in plating medium [Dulbecco's Modified Eagle Medium (DMEM; Cellgro) with 17% Media 199 (Invitrogen), 15% fetal bovine serum (FBS; Invitrogen) and 1% penicillin/streptomycin solution (P/S; Invitrogen)]. Cells were counted using a hemocytometer.
Cells were plated on glass and plastic surfaces which were coated with laminin (Invitrogen; 10μg/ml in PBS) at room temperature for 1 hour prior to plating. For immunofluorescence analysis, 1×10^6 cells were seeded per well on glass coverslips in 6-well plates. For protein and RNA isolation, 2×10^6 cells were seeded in 6 cm-culture dishes. Cells were left undisturbed in plating medium at 37° C. for 72 hours and then cultured in maintenance medium (DMEM with 20% Media 199, 1% insulin-transferrin-sodium selenite solution (ITS; Sigma-Aldrich) and 1% P/S) in the presence of 100 μM 5-bromo-2′-deoxyuridine (BrdU; Sigam-Aldrich) to eliminate proliferating non-myocytes resulting in a relatively pure population of isolated cardiac myocytes (Bishopric et al., 1987). After 4 days, isolated cardiac myocytes were cultured in BrdU-containing maintenance medium in the presence of recombinant murine FGF23 (26.1 kDa, 251 amino acids; R&D Systems) or FGF2 (16.2 kDa, 144 amino acids; R&D Systems) for 48 hours.
We analyzed isolated NRVM on laminin-coated glass coverslips by immunocytochemsitry according to our established protocols (Faul et al., Cell Biol., 169(3):415-424, 2005; Faul et al., Cell Biol., 27(23):8215-8227, 2007). The mouse monoclonal antibody against sarcomeric α-actinin (EA-53; Sigma-Aldrich) was used at 1:1000 and Cy3-conjugated goat-anti mouse (Jackson Immuno Research) as secondary antibody at 1:750. To visualize nuclei, fixed cells were incubated with 4′,6-diamidino-2-phenylindole (DAPI; 400 ng/ml in PBS) for 5 minutes. Immunofluorescence images were taken on a Leica TCS-SP5 confocal microscope with a 63× oil objective with a 1.6× zoom. Leica AF6000 fluorescence software was used to measure the cell surface area based on α-actinin-positive staining.
To assess the signaling pathways involved in FGF23- and FGF2-mediated hypertrophy, we analyzed the morphometry of plated cells that were pre-treated with specific inhibitors for 60 minutes prior to the addition of the FGFs at varying concentrations.

[2] = test system: isolated NRVM; test: Cross-sectional area (hypertrophy) of isolated NRVM with receptor antagonists (Example 4); format: cell-based, rat; settings: for cross-sectional area of isolated NRVM: 48 h, FGF alone 25 ng/ml vs PBS
Protocol: as §1, with “(Faul” for “(Toraason”, “2011).” for “Toxicology, 56(1):107-117, 1989).”, “rats” for “rats (Charles River)”, “calcium-and” for “calcium- and”, “added,” for “added”, “by” for “by gently”
Cells were plated on glass and plastic surfaces, which were coated with laminin (Invitrogen; 10 μg/ml in PBS) at room temperature for 1 hour prior to plating. For immunofluorescence analysis, 3×10^5 cells were seeded per well on glass coverslips in 24-well plates. For Western blot or qPCR analyses of total extracts, 1×10^6 cells were seeded per well in 6-well plates, and for immunoprecipitation assays, 5×10^6 cells were seeded in 10 cm-culture dishes. Cells were left undisturbed in plating medium at 37° C. for 72 hours and then cultured in maintenance medium (DMEM with 20% Media 199, 1% insulin-transferrin-sodium selenite solution [ITS; Sigma-Aldrich] and 1% P/S) in the presence of 100 μM 5-bromo-2′-deoxyuridine (BrdU; Sigam-Aldrich). After 4 days, isolated cardiac myocytes were cultured in BrdU-containing maintenance medium in the presence of recombinant murine FGF23 or FGF2 (both at 25 ng/ml) for different time points.
Cultured cells were fixed in 2% PFA (in 5 mg/ml sucrose) for 5 minutes and permeabilized in 1% Triton X-100 (in PBS) for 10 minutes. We analyzed hypertrophic growth of isolated NRVM and NMVM on laminin-coated glass coverslips after 48 hours of treatment with growth factors. For FGFR4 expression and localization analyses, untreated NMVM from wild-type and FGFR4^−/− mice were immunolabeled. The mouse monoclonal antibody against sarcomeric α-actinin (EA-53; Sigma-Aldrich) was used at 1:1,000, and rabbit polyclonal anti-FGFR4 (C-16; Santa Cruz) at 1:50. Cy3-conjugated goat-anti mouse and Alexa488-conjugated goat-anti rabbit (Jackson Immuno Research) were used as secondary antibodies at 1:300. To visualize nuclei, fixed cells were incubated with 4′,6-diamidino-2-phenylindole (DAPI; 400 ng/ml in PBS) for 10 minutes. Immunofluorescence images were taken on a Leica TCS-SP5 confocal microscope with a 63× oil objective.
Myocyte cross-sectional area was measured based on α-actinin-positive staining using Leica AF6000 fluorescence software. To assess the signaling pathways involved in FGF23- and FGF2-mediated hypertrophy, we analyzed the morphometry of plated cells that were pre-treated with specific inhibitors for 60 minutes prior to the addition of the FGFs at 25 ng/ml (NRVMs) or at 100 ng/ml (NMVMs). The following inhibitors and concentrations were used: pan-FGFR, PD173074 (Sigma-Aldrich) at 10 nM; FGFR1-3, AZD4547 (ChemieTek) at 5 nM; and FGFR4 blocking antibody (human monoclonal, U3-11; U3Pharma) at 10 μg/ml.

Molecule | FGF2-induced increase in cell surface area (hypertrophy) in presence of inhibitor ([1]; 48 h FGF2, inhibitor pre-treated 60 min at Table 2 concentration) | FGF23-induced increase in cell surface area (hypertrophy) in presence of inhibitor ([1]; 48 h FGF23, inhibitor pre-treated 60 min at Table 2 concentration) | FGF2-induced hypertrophy (cross-sectional area) with receptor antagonist ([2]; NRVM 48 h, FGF2 25 ng/ml, PD173074 10 nM, AZD4547 5 nM, anti-FGFR4 10 μg/ml) | FGF23-induced hypertrophy (cross-sectional area) with receptor antagonist ([2]; NRVM 48 h, FGF23 25 ng/ml, PD173074 10 nM, AZD4547 5 nM, anti-FGFR4 10 μg/ml) | cell surface area [1] | cross-sectional area of isolated NRVM [2]
CCN(CC)CCCCNc1ncc2cc(-c3cc(OC)cc(OC)c3)c(NC(=O)NC(C)(C)C)nc2n1 [PD173074] | completely blocked | completely blocked | inhibited | inhibited | – | –
FGF2: recombinant mouse FGF2 (Ala11-Ser154) (R&D Systems) (protein) ALPEDGGAAFPPGHFKDPKRLYCKNGGFFLRIHPDGRVDGVREKSDPHVKLQLQAEERGVVSIKGVCANRYLAMKEDGRLLASKCVTEECFFFERLESNNYNTYRSRKYSSWYVALKRTGQYKLGSKTGPGQKAILFLPMSAKS | – | – | – | – | significant increase | significantly increases
FGF23: recombinant mouse FGF23, 6His-tagged Tyr25-Val251 (Arg179Gln) (R&D Systems) (protein, left off: small tags and cut ends) YPDTSPLLGSNWGSLTHLYTATARTSYHLQIHRDGHVDGTPHQTIYSALMITSEDAGSVVITGAMTRRFLCMDLHGNIFGSLHFSPENCKFRQWTLENGYDVYLSQKHHYLVSLGRAKRIFQPGTNPPPFSQFLARRNEVPLLHFYTVRPRRHTQSAEDPPERDPLNVLKPRPRATPVPVSCSRELPSAEEGGPAASDPLGVLRRGRGDARGGAGGADRCRPFPRFV | – | – | – | – | significant increase | significantly increases
